Assay results taken from US8586739B2, “Heterocyclic compounds and their uses” (Amgen Inc., priority 2007, dated 2013).

tested on: human B cells; experiment: Human B cells proliferation stimulated by anti-IgM (3H thymidine); type: cell-based; conditions: Homo sapiens, B-cell, 72 h, purified human B cells, anti-Human IgM + CD40L-LZ
Experimental: Human B Cells Proliferation stimulate by anti-IgM
Isolate PBMCs from Leukopac or from human fresh blood. Isolate human B cells by using Miltenyi protocol and B cell isolation kit II.—human B cells were Purified by using autoMACS® column.
Activation of Human B Cells
Use 96 well Flat bottom plate, plate 50000/well purified B cells in B cell proffer-ation medium (DMEM+5% FCS, 10 mM Hepes, 50 μM 2-mercaptoethanol); 150 μL medium contain 250 ng/mL CD40L-LZ recombinant protein (Amgen) and 2 μg/mL anti-Human IgM antibody (Jackson ImmunoReseach Lab.#109-006-129), mixed with 50 μL B cell medium containing PI3K inhibitors and incubate 72 h at 37° C. incubator. After 72 h, pulse labeling B cells with 0.5-1 uCi/well ^3H thymidine for overnight ˜18 h, and harvest cell using TOM harvester.

Question: Which IC50 does the source give for `C[C@H](Nc1ncnc2nc[nH]c12)c1cc2cccc(F)c2nc1-c1cc(F)ccc1F` [N-((1S)-1-(2-(2,5-difluorophenyl)-8-fluoro-3-quinolinyl)ethyl)-7H-purin-6-amine] here?
Answer: 12.7 nM

Question: For `C[C@H](Nc1ncnc2[nH]cnc12)c1cc2cccc(Cl)c2nc1-c1cc(F)ccc1OCc1ccccc1` [N-((1S)-1-(2-(2-(benzyloxy)-5-fluorophenyl)-8-chloro-3-quinolinyl)ethyl)-9H-purin-6-amine], which IC50 is on record?
Answer: 16.8 nM

Question: Which IC50 does the source give for `C[C@H](Nc1ncnc2[nH]cnc12)c1cc2ccc(F)cc2nc1-c1cc(F)ccc1Cl` [N-((1S)-1-(2-(2-chloro-5-fluorophenyl)-7-fluoro-3-quinolinyl)ethyl)-9H-purin-6-amine] here?
Answer: 20 nM

Question: For `C[C@H](Nc1ncnc2nc[nH]c12)c1cc2cccc(F)c2nc1-c1cc(F)ccc1Cl` [N-((1S)-1-(2-(2-chloro-5-fluorophenyl)-8-fluoro-3-quinolinyl)ethyl)-7H-purin-6-amine], which IC50 is on record?
Answer: 33.7 nM

Question: For `C[C@H](Nc1ncnc2[nH]cnc12)c1cc2ccc(F)cc2nc1-c1ccccc1Cl` [N-((1S)-1-(2-(2-chlorophenyl)-7-fluoro-3-quinolinyl)ethyl)-9H-purin-6-amine], which IC50 is on record?
Answer: 29 nM

Question: Which IC50 does the source give for `C[C@H](Nc1ncnc2nc[nH]c12)c1cc2cccc(F)c2nc1-c1ccccc1Cl` [N-((1S)-1-(2-(2-chlorophenyl)-8-fluoro-3-quinolinyl)ethyl)-7H-purin-6-amine] here?
Answer: 11.4 nM

Question: For `C[C@H](Nc1ncnc2[nH]cnc12)c1cc2ccccc2nc1-c1ccccn1` [N-((1S)-1-(2-(2-pyridinyl)-3-quinolinyl)ethyl)-9H-purin-6-amine], which IC50 is on record?
Answer: 5.6 nM

Question: With `C[C@H](Nc1ncnc2[nH]cnc12)c1cc2ccc(F)cc2nc1-c1cc(F)cc(F)c1` [N-((1S)-1-(2-(3,5-difluorophenyl)-7-fluoro-3-quinolinyl)ethyl)-9H-purin-6-amine] as the compound, how does the IC50 read?
Answer: 5.15 nM

Question: How did the IC50 turn out when `C[C@H](Nc1ncnc2nc[nH]c12)c1cc2cccc(F)c2nc1-c1cc(F)cc(F)c1` [N-((1S)-1-(2-(3,5-difluorophenyl)-8-fluoro-3-quinolinyl)ethyl)-7H-purin-6-amine] was run?
Answer: 7.07 nM

Question: Which IC50 does the source give for `C[C@H](Nc1ncnc2nc[nH]c12)c1cc2cccc(F)c2nc1-c1cc(F)cc(Cl)c1` [N-((1S)-1-(2-(3-chloro-5-fluorophenyl)-8-fluoro-3-quinolinyl)ethyl)-7H-purin-6-amine] here?
Answer: 8.09 nM

Question: Which IC50 does the source give for `C[C@H](Nc1ncnc2[nH]cnc12)c1nc2cccc(C(F)(F)F)c2nc1-c1ccccc1Cl` [N-((1S)-1-(3-(2-chlorophenyl)-5-(trifluoromethyl)-2-quinoxalinyl)ethyl)-9H-purin-6-amine] here?
Answer: 10.4 nM

Question: `C[C@H](Nc1ncnc2[nH]cnc12)c1nc2cccc(Cl)c2nc1-c1cc(F)ccc1Cl` [N-((1S)-1-(5-chloro-3-(2-chloro-5-fluorophenyl)-2-quinoxalinyl)ethyl)-9H-purin-6-amine] was tested. Which IC50 did it give?
Answer: 89.3 nM

Question: Which IC50 does the source give for `C[C@H](Nc1ncnc2[nH]cnc12)c1nc2cccc(Cl)c2cc1-c1cccc(F)c1` [N-((1S)-1-(5-chloro-3-(3-fluorophenyl)-2-quinolinyl)ethyl)-9H-purin-6-amine] here?
Answer: 8.78 nM

Question: How did the IC50 turn out when `C[C@H](Nc1ncnc2[nH]cnc12)c1cc2ccc(F)cc2[n+]([O-])c1-c1ccccc1` [N-((1S)-1-(7-fluoro-1-oxido-2-phenyl-3-quinolinyl)ethyl)-9H-purin-6-amine] was run?
Answer: 4.64 nM

Question: `C[C@H](Nc1ncnc2[nH]cnc12)c1cc2ccc(F)cc2nc1-c1ccccc1S(C)(=O)=O` [N-((1S)-1-(7-fluoro-2-(2-(methylsulfonyl)phenyl)-3-quinolinyl)ethyl)-9H-purin-6-amine] was tested. Which IC50 did it give?
Answer: 6.82 nM

Question: How did the IC50 turn out when `C[C@H](Nc1ncnc2[nH]cnc12)c1cc2ccc(F)cc2nc1-c1cccc(S(C)(=O)=O)c1` [N-((1S)-1-(7-fluoro-2-(3-(methylsulfonyl)phenyl)-3-quinolinyl)ethyl)-9H-purin-6-amine] was run?
Answer: 148 nM

Question: How did the IC50 turn out when `C[C@H](Nc1ncnc2[nH]cnc12)c1cc2ccc(F)cc2nc1-c1cccc(F)c1` [N-((1S)-1-(7-fluoro-2-(3-fluorophenyl)-3-quinolinyl)ethyl)-9H-purin-6-amine] was run?
Answer: 11.5 nM

Question: `C[C@H](Nc1ncnc2[nH]cnc12)c1cc2ccc(F)cc2nc1-c1cccnc1` [N-((1S)-1-(7-fluoro-2-(3-pyridinyl)-3-quinolinyl)ethyl)-9H-purin-6-amine] was tested. Which IC50 did it give?
Answer: 12.2 nM

Question: Which IC50 does the source give for `C[C@H](Nc1ncnc2[nH]cnc12)c1cc2ccc(F)cc2nc1-c1cccc(F)n1` [N-((1S)-1-(7-fluoro-2-(6-fluoro-2-pyridinyl)-3-quinolinyl)ethyl)-9H-purin-6-amine] here?
Answer: 3.72 nM

Question: How did the IC50 turn out when `C[C@H](Nc1ncnc2[nH]cnc12)c1cc2ccc(F)cc2nc1-c1ccccc1` [N-((1S)-1-(7-fluoro-2-phenyl-3-quinolinyl)ethyl)-9H-purin-6-amine] was run?
Answer: 5.11 nM

Question: How did the IC50 turn out when `C[C@H](Nc1ncnc2[nH]cnc12)c1cc2cccc(Cl)c2nc1-c1nccs1` [N-((1S)-1-(8-chloro-2-(1,3-thiazol-2-yl)-3-quinolinyl)ethyl)-9H-purin-6-amine] was run?
Answer: 1.64 nM

Question: `C[C@H](Nc1ncnc2[nH]cnc12)c1cc2cccc(Cl)c2nc1-c1cscn1` [N-((1S)-1-(8-chloro-2-(1,3-thiazol-4-yl)-3-quinolinyl)ethyl)-9H-purin-6-amine] was tested. Which IC50 did it give?
Answer: 0.537 nM

Question: How did the IC50 turn out when `C[C@H](Nc1ncnc2[nH]cnc12)c1cc2cccc(Cl)c2nc1-c1ccc(F)cc1F` [N-((1S)-1-(8-chloro-2-(2,4-difluorophenyl)-3-quinolinyl)ethyl)-9H-purin-6-amine] was run?
Answer: 14 nM

Question: With `C[C@H](Nc1ncnc2[nH]cnc12)c1cc2cccc(Cl)c2nc1-c1cc(F)ccc1Cl` [N-((1S)-1-(8-chloro-2-(2-chloro-5-fluorophenyl)-3-quinolinyl)ethyl)-9H-purin-6-amine] as the compound, how does the IC50 read?
Answer: 46.6 nM

Question: With `C[C@H](Nc1ncnc2[nH]cnc12)c1cc2cccc(Cl)c2nc1-c1ccccc1Cl` [N-((1S)-1-(8-chloro-2-(2-chlorophenyl)-3-quinolinyl)ethyl)-9H-purin-6-amine] as the compound, how does the IC50 read?
Answer: 3.6 nM

Question: `CCc1ncccc1-c1nc2c(Cl)cccc2cc1[C@H](C)Nc1ncnc2[nH]cnc12` [N-((1S)-1-(8-chloro-2-(2-ethyl-3-pyridinyl)-3-quinolinyl)ethyl)-9H-purin-6-amine] was tested. Which IC50 did it give?
Answer: 3.31 nM

Question: How did the IC50 turn out when `CCc1ncc(F)cc1-c1nc2c(Cl)cccc2cc1[C@H](C)Nc1ncnc2[nH]cnc12` [N-((1S)-1-(8-chloro-2-(2-ethyl-5-fluoro-3-pyridinyl)-3-quinolinyl)ethyl)-9H-purin-6-amine] was run?
Answer: 3.84 nM

Question: `C[C@H](Nc1ncnc2[nH]cnc12)c1cc2cccc(Cl)c2nc1-c1ccccc1F` [N-((1S)-1-(8-chloro-2-(2-fluorophenyl)-3-quinolinyl)ethyl)-9H-purin-6-amine] was tested. Which IC50 did it give?
Answer: 3.56 nM

Question: For `COc1nc(-c2nc3c(Cl)cccc3cc2[C@H](C)Nc2ncnc3[nH]cnc23)cs1` [N-((1S)-1-(8-chloro-2-(2-methoxy-1,3-thiazol-4-yl)-3-quinolinyl)ethyl)-9H-purin-6-amine], which IC50 is on record?
Answer: 17.5 nM

Question: For `Cc1ncccc1-c1nc2c(Cl)cccc2cc1[C@H](C)Nc1ncnc2[nH]cnc12` [N-((1S)-1-(8-chloro-2-(2-methyl-3-pyridinyl)-3-quinolinyl)ethyl)-9H-purin-6-amine], which IC50 is on record?
Answer: 4.34 nM

Question: Which IC50 does the source give for `C[C@H](Nc1nc(F)nc2[nH]cnc12)c1cc2cccc(Cl)c2nc1-c1ccccn1` [N-((1S)-1-(8-chloro-2-(2-pyridinyl)-3-quinolinyl)ethyl)-2-fluoro-9H-purin-6-amine] here?
Answer: 14 nM

Question: For `C[C@H](Nc1ncnc2[nH]cnc12)c1cc2cccc(Cl)c2nc1-c1ccccn1` [N-((1S)-1-(8-chloro-2-(2-pyridinyl)-3-quinolinyl)ethyl)-9H-purin-6-amine], which IC50 is on record?
Answer: 3.24 nM

Question: How did the IC50 turn out when `C[C@H](Nc1ncnc2[nH]cnc12)c1cc2cccc(Cl)c2nc1-c1ncccn1` [N-((1S)-1-(8-chloro-2-(2-pyrimidinyl)-3-quinolinyl)ethyl)-9H-purin-6-amine] was run?
Answer: 90.4 nM

Question: For `C[C@H](Nc1ncnc2[nH]cnc12)c1cc2cccc(Cl)c2nc1-c1cc(F)cc(F)c1` [N-((1S)-1-(8-chloro-2-(3,5-difluorophenyl)-3-quinolinyl)ethyl)-9H-purin-6-amine], which IC50 is on record?
Answer: 5.04 nM

Question: For `Cc1cc(C)n(-c2nc3c(Cl)cccc3cc2[C@H](C)Nc2ncnc3[nH]cnc23)n1` [N-((1S)-1-(8-chloro-2-(3,5-dimethyl-1H-pyrazol-1-yl)-3-quinolinyl)ethyl)-9H-purin-6-amine], which IC50 is on record?
Answer: 2.63 nM

Question: For `C[C@H](Nc1ncnc2[nH]cnc12)c1cc2cccc(Cl)c2nc1-c1cccc(S(C)(=O)=O)c1` [N-((1S)-1-(8-chloro-2-(3-(methylsulfonyl)phenyl)-3-quinolinyl)ethyl)-9H-purin-6-amine], which IC50 is on record?
Answer: 55.8 nM

Question: Which IC50 does the source give for `C[C@H](Nc1ncnc2[nH]cnc12)c1cc2cccc(Cl)c2nc1-n1ccc(C(F)(F)F)n1` [N-((1S)-1-(8-chloro-2-(3-(trifluoromethyl)-1H-pyrazol-1-yl)-3-quinolinyl)ethyl)-9H-purin-6-amine] here?
Answer: 449 nM

Question: `C[C@H](Nc1ncnc2[nH]cnc12)c1cc2cccc(Cl)c2nc1-c1cccc(Cl)c1` [N-((1S)-1-(8-chloro-2-(3-chlorophenyl)-3-quinolinyl)ethyl)-9H-purin-6-amine] was tested. Which IC50 did it give?
Answer: 5.52 nM

Question: `CCC[C@H](Nc1ncnc2[nH]cnc12)c1cc2cccc(Cl)c2nc1-c1cccc(F)c1` [N-((1S)-1-(8-chloro-2-(3-fluorophenyl)-3-quinolinyl)butyl)-9H-purin-6-amine] was tested. Which IC50 did it give?
Answer: 6.52 nM

Question: For `C[C@H](Nc1ncnc2[nH]cnc12)c1cc2cccc(Cl)c2nc1-c1cccc(F)c1` [N-((1S)-1-(8-chloro-2-(3-fluorophenyl)-3-quinolinyl)ethyl)-9H-purin-6-amine], which IC50 is on record?
Answer: 2.42 nM

Question: For `CC[C@H](Nc1ncnc2[nH]cnc12)c1cc2cccc(Cl)c2nc1-c1cccc(F)c1` [N-((1S)-1-(8-chloro-2-(3-fluorophenyl)-3-quinolinyl)propyl)-9H-purin-6-amine], which IC50 is on record?
Answer: 5.3 nM

same assay, conditions: Homo sapiens, B-cell, purified human B cells, anti-Human IgM + CD40L-LZ, 72 h

Question: With `C[C@H](Nc1ncnc2[nH]cnc12)c1cc2ccc(F)cc2nc1-c1ccccc1Cl` [N-((1S)-1-(2-(2-chlorophenyl)-7-fluoro-3-quinolinyl)ethyl)-9H-purin-6-amine] as the compound, how does the IC50 read?
Answer: 29 nM

Question: `C[C@H](Nc1ncnc2[nH]cnc12)c1cc2cccc(Cl)c2nc1-c1ccccc1F` [N-((1S)-1-(8-chloro-2-(2-fluorophenyl)-3-quinolinyl)ethyl)-9H-purin-6-amine] was tested. Which IC50 did it give?
Answer: 3.56 nM

Question: How did the IC50 turn out when `C[C@H](Nc1ncnc2[nH]cnc12)c1cc2cccc(Cl)c2nc1-c1cc(F)cc(F)c1` [N-((1S)-1-(8-chloro-2-(3,5-difluorophenyl)-3-quinolinyl)ethyl)-9H-purin-6-amine] was run?
Answer: 5.04 nM
